Experimental data as given in PubChem BioAssay AID1259407 (Chemical Carcinogenesis Research Information System (CCRIS), 2018).
Activity calls are given as the source filed them. The rule behind the calls is not given here.

Tested on: CCRIS mutagenicity, Ames/micronucleus/aberration tests
Experiment: CCRIS mutagenicity studies
[1] = Test System: AMES SALMONELLA TYPHIMURIUM, Strain/Indicator: TA98, Metabolic Activation: RAT, LIVER, S-9, AROCLOR 1254, Method: STANDARD PLATE
[2] = Test System: AMES SALMONELLA TYPHIMURIUM, Strain/Indicator: TA100, Metabolic Activation: RAT, LIVER, S-9, AROCLOR 1254, Method: STANDARD PLATE

Measured: mutagenic call

C=C(C)C(=O)OCC
inactive: Test System: AMES SALMONELLA TYPHIMURIUM, Strain/Indicator: TA98, Metabolic Activation: HAMSTER, LIVER, S-9, AROCLOR 1254 (10%), Method: PREINCUBATION inactive; negative | Test System: AMES SALMONELLA TYPHIMURIUM, Strain/Indicator: TA98, Metabolic Activation: NONE, Method: PREINCUBATION inactive; negative | Test System: AMES SALMONELLA TYPHIMURIUM, Strain/Indicator: TA98, Metabolic Activation: NONE, Method: STANDARD PLATE inactive; negative | Test System: AMES SALMONELLA TYPHIMURIUM, Strain/Indicator: TA98, Metabolic Activation: RAT, LIVER, S-9, AROCLOR 1254 (10%), Method: PREINCUBATION inactive; negative | [1] inactive; negative | Test System: AMES SALMONELLA TYPHIMURIUM, Strain/Indicator: TA98, Metabolic Activation: RAT, LIVER, S-9, SODIUM PHENOBARBITAL, Method: STANDARD PLATE inactive; negative | Test System: AMES SALMONELLA TYPHIMURIUM, Strain/Indicator: TA100, Metabolic Activation: HAMSTER, LIVER, S-9, AROCLOR 1254 (10%), Method: PREINCUBATION inactive; negative | Test System: AMES SALMONELLA TYPHIMURIUM, Strain/Indicator: TA100, Metabolic Activation: NONE, Method: PREINCUBATION inactive; negative | Test System: AMES SALMONELLA TYPHIMURIUM, Strain/Indicator: TA100, Metabolic Activation: NONE, Method: STANDARD PLATE inactive; negative | Test System: AMES SALMONELLA TYPHIMURIUM, Strain/Indicator: TA100, Metabolic Activation: RAT, LIVER, S-9, AROCLOR 1254 (10%), Method: PREINCUBATION inactive; negative | [2] inactive; negative | Test System: AMES SALMONELLA TYPHIMURIUM, Strain/Indicator: TA100, Metabolic Activation: RAT, LIVER, S-9, SODIUM PHENOBARBITAL, Method: STANDARD PLATE inactive; negative | Test System: AMES SALMONELLA TYPHIMURIUM, Strain/Indicator: TA1535, Metabolic Activation: HAMSTER, LIVER, S-9, AROCLOR 1254 (10%), Method: PREINCUBATION inactive; negative | Test System: AMES SALMONELLA TYPHIMURIUM, Strain/Indicator: TA1535, Metabolic Activation: NONE, Method: PREINCUBATION inactive; negative | Test System: AMES SALMONELLA TYPHIMURIUM, Strain/Indicator: TA1535, Metabolic Activation: NONE, Method: STANDARD PLATE inactive; negative | Test System: AMES SALMONELLA TYPHIMURIUM, Strain/Indicator: TA1535, Metabolic Activation: RAT, LIVER, S-9, AROCLOR 1254 (10%), Method: PREINCUBATION inactive; negative | Test System: AMES SALMONELLA TYPHIMURIUM, Strain/Indicator: TA1535, Metabolic Activation: RAT, LIVER, S-9, AROCLOR 1254, Method: STANDARD PLATE inactive; negative | Test System: AMES SALMONELLA TYPHIMURIUM, Strain/Indicator: TA1535, Metabolic Activation: RAT, LIVER, S-9, SODIUM PHENOBARBITAL, Method: STANDARD PLATE inactive; negative | Test System: AMES SALMONELLA TYPHIMURIUM, Strain/Indicator: TA1537, Metabolic Activation: HAMSTER, LIVER, S-9, AROCLOR 1254 (10%), Method: PREINCUBATION inactive; negative | Test System: AMES SALMONELLA TYPHIMURIUM, Strain/Indicator: TA1537, Metabolic Activation: NONE, Method: PREINCUBATION inactive; negative | Test System: AMES SALMONELLA TYPHIMURIUM, Strain/Indicator: TA1537, Metabolic Activation: NONE, Method: STANDARD PLATE inactive; negative | Test System: AMES SALMONELLA TYPHIMURIUM, Strain/Indicator: TA1537, Metabolic Activation: RAT, LIVER, S-9, AROCLOR 1254 (10%), Method: PREINCUBATION inactive; negative | Test System: AMES SALMONELLA TYPHIMURIUM, Strain/Indicator: TA1537, Metabolic Activation: RAT, LIVER, S-9, AROCLOR 1254, Method: STANDARD PLATE inactive; negative | Test System: AMES SALMONELLA TYPHIMURIUM, Strain/Indicator: TA1537, Metabolic Activation: RAT, LIVER, S-9, SODIUM PHENOBARBITAL, Method: STANDARD PLATE inactive; negative | Test System: AMES SALMONELLA TYPHIMURIUM, Strain/Indicator: TA1538, Metabolic Activation: NONE, Method: STANDARD PLATE inactive; negative | Test System: AMES SALMONELLA TYPHIMURIUM, Strain/Indicator: TA1538, Metabolic Activation: RAT, LIVER, S-9, AROCLOR 1254, Method: STANDARD PLATE inactive; negative | Test System: AMES SALMONELLA TYPHIMURIUM, Strain/Indicator: TA1538, Metabolic Activation: RAT, LIVER, S-9, SODIUM PHENOBARBITAL, Method: STANDARD PLATE inactive; negative

CC(=O)C1=CC[C@H]2C3=CCC4=C[C@@H](O)[C@H](O)C[C@]4(C)C3C[C@@H](O)[C@]12C (some centres not stated)
inactive: Test System: AMES SALMONELLA TYPHIMURIUM, Strain/Indicator: TM677, Metabolic Activation: NONE, Method: STANDARD PLATE inactive; negative | Test System: AMES SALMONELLA TYPHIMURIUM, Strain/Indicator: TM677, Metabolic Activation: RAT, LIVER, S-9, AROCLOR 1254, Method: STANDARD PLATE inactive; negative | Test System: CHINESE HAMSTER OVARY, Strain/Indicator: CHO/6-THIOGUANINE, Metabolic Activation: NONE, Method: STANDARD PLATE inactive; negative

c1cc2ccc3cccc4ncc(c1)c2c34
active: [1] active; positive | [2] active; positive
